Results taken from the NIST ThermoML archive (doi:10.1007/s10765-007-0223-x).

Experiment: xn = mol fraction of the nth substance listed
Settings: 101 kPa, Liquid; for speed of sound: Single path-length method

COC(C)(C)C [2-methoxy-2-methylpropane] + CC(C)CC(C)(C)C
Settings	mass density [kg/m3]	speed of sound [m/s]
288.15 K, x1 = 0.049	697.553	1121.8
288.15 K, x1 = 0.091	698.921	1119.5
288.15 K, x1 = 0.197	702.655	1113.9
288.15 K, x1 = 0.296	706.427	1108.7
288.15 K, x1 = 0.394	710.506	1103.7
288.15 K, x1 = 0.507	715.659	1098.5
288.15 K, x1 = 0.603	720.373	1094.9
288.15 K, x1 = 0.7	725.737	1090.9
288.15 K, x1 = 0.79	731.164	1087.8
288.15 K, x1 = 0.898	738.236	1084.6
288.15 K, x1 = 0.951	742.111	1083.4
288.15 K, x1 = 1	744.861	1082.1
290.65 K, x1 = 0.049	695.495	1111.2
290.65 K, x1 = 0.091	696.847	1108.8
290.65 K, x1 = 0.197	700.534	1103.3
290.65 K, x1 = 0.296	704.261	1097.9
290.65 K, x1 = 0.394	708.292	1092.9
290.65 K, x1 = 0.507	713.386	1087.6
290.65 K, x1 = 0.603	718.048	1083.9
290.65 K, x1 = 0.7	723.357	1079.8
290.65 K, x1 = 0.79	728.726	1076.7
290.65 K, x1 = 0.898	735.725	1073.3
290.65 K, x1 = 0.951	739.564	1072
290.65 K, x1 = 1	742.259	1070.6
293.15 K, x1 = 0.049	693.424	1100.6
293.15 K, x1 = 0.091	694.76	1098.2
293.15 K, x1 = 0.197	698.399	1092.6
293.15 K, x1 = 0.296	702.081	1087.1
293.15 K, x1 = 0.394	706.064	1082
293.15 K, x1 = 0.507	711.097	1076.7
293.15 K, x1 = 0.603	715.704	1072.9
293.15 K, x1 = 0.7	720.957	1068.7
293.15 K, x1 = 0.79	726.269	1065.5
293.15 K, x1 = 0.898	733.196	1062
293.15 K, x1 = 0.951	736.997	1060.6
293.15 K, x1 = 1	739.654	1059.1
295.65 K, x1 = 0.049	691.351	1090
295.65 K, x1 = 0.091	692.668	1087.5
295.65 K, x1 = 0.197	696.259	1081.8
295.65 K, x1 = 0.296	699.893	1076.2
295.65 K, x1 = 0.394	703.829	1071.1
295.65 K, x1 = 0.507	708.799	1065.6
295.65 K, x1 = 0.603	713.354	1061.7
295.65 K, x1 = 0.7	718.545	1057.5
295.65 K, x1 = 0.79	723.8	1054.2
295.65 K, x1 = 0.898	730.656	1050.5
295.65 K, x1 = 0.951	734.419	1049
295.65 K, x1 = 1	737.036	1047.8
298.15 K, x1 = 0.049	689.271	1079.4
298.15 K, x1 = 0.091	690.571	1076.9
298.15 K, x1 = 0.197	694.113	1071.2
298.15 K, x1 = 0.296	697.7	1065.5
298.15 K, x1 = 0.394	701.586	1060.2
298.15 K, x1 = 0.507	706.495	1054.7
298.15 K, x1 = 0.603	710.995	1050.7
298.15 K, x1 = 0.7	716.128	1046.4
298.15 K, x1 = 0.79	721.323	1042.9
298.15 K, x1 = 0.898	728.107	1039.2
298.15 K, x1 = 0.951	731.831	1037.6
298.15 K, x1 = 1	734.406	1036.6
300.65 K, x1 = 0.049	687.187	1068.9
300.65 K, x1 = 0.091	688.468	1066.3
300.65 K, x1 = 0.197	691.962	1060.5
300.65 K, x1 = 0.296	695.502	1054.7
300.65 K, x1 = 0.394	699.338	1049.4
300.65 K, x1 = 0.507	704.182	1043.8
300.65 K, x1 = 0.603	708.63	1039.7
300.65 K, x1 = 0.7	713.701	1035.2
300.65 K, x1 = 0.79	718.837	1031.7
300.65 K, x1 = 0.898	725.547	1027.9
300.65 K, x1 = 0.951	729.232	1026.2
300.65 K, x1 = 1	731.766	1025.4
303.15 K, x1 = 0.049	685.097	1058.4
303.15 K, x1 = 0.091	686.359	1055.8
303.15 K, x1 = 0.197	689.806	1050
303.15 K, x1 = 0.296	693.296	1044
303.15 K, x1 = 0.394	697.081	1038.7
303.15 K, x1 = 0.507	701.866	1032.8
303.15 K, x1 = 0.603	706.257	1028.7
303.15 K, x1 = 0.7	711.266	1024.1
303.15 K, x1 = 0.79	716.339	1020.4
303.15 K, x1 = 0.898	722.977	1016.5
303.15 K, x1 = 0.951	726.622	1014.8
303.15 K, x1 = 1	729.112	1014
305.65 K, x1 = 0.049	–	1048.1
305.65 K, x1 = 0.091	–	1045.4
305.65 K, x1 = 0.197	–	1039.5
305.65 K, x1 = 0.296	–	1033.4
305.65 K, x1 = 0.394	–	1028
305.65 K, x1 = 0.507	–	1021.9
305.65 K, x1 = 0.603	–	1017.7
305.65 K, x1 = 0.7	–	1013
305.65 K, x1 = 0.79	–	1009.2
305.65 K, x1 = 0.898	–	1005.2
305.65 K, x1 = 0.951	–	1003.4
305.65 K, x1 = 1	–	1002.7
